Among the data in ChEMBL document CHEMBL4387741, “Optimization of novel reversible Bruton's tyrosine kinase inhibitors identified using Tethering-fragment-based screens” (Bioorg Med Chem, 2019) are inhibition values, retold here.

Each structure is given as a SMILES string.

Experiment [1] addresses Ribosomal protein S6 kinase alpha-1 (Homo sapiens) (UniProt Q15418). Kind of experiment: Inhibition of wild-type human partial length N-terminal RSK1 Kinase domain 1 (M1 to E388 residues) expressed in bacterial expression system at 1 uM by Kinomescan method relative to control.
For experiment [2], the system named is Epidermal growth factor receptor (Homo sapiens), P00533 [L861Q]. The experiment in a line: Inhibition of human partial length EGFR L861Q mutant (R669 to V1011 residues) expressed in bacterial expression system at 1 uM by Kinomescan method relative to control.
Experiment [3] has as its target Serine/threonine-protein kinase PAK 1 (Homo sapiens) (UniProt Q13153). The experiment in a line: Inhibition of wild-type human partial length PAK1 (S149 to H545 residues) expressed in bacterial expression system at 1 uM by Kinomescan method relative to control.
For experiment [4], the target named is RAC-beta serine/threonine-protein kinase (Homo sapiens) (UniProt P31751). The experiment in a line: Inhibition of wild-type human partial length AKT2 expressed in bacterial expression system at 1 uM by Kinomescan method relative to control.
Experiment [5] addresses Rho-associated protein kinase 2 (Homo sapiens) (UniProt O75116). The experiment in a line: Inhibition of wild-type human partial length ROCK2 (M1 to T431 residues) expressed in mammalian expression system at 1 uM by Kinomescan method relative to control.
The target of experiment [6] is Rhodopsin kinase GRK1 (Homo sapiens) (UniProt Q15835). The experiment in a line: Inhibition of wild-type human full length GRK1 (M1 to S563 residues) expressed in mammalian expression system at 1 uM by Kinomescan method relative to control.
Experiment [7] addresses Mitogen-activated protein kinase 6 (Homo sapiens) (UniProt Q16659). The experiment in a line: Inhibition of wild-type human partial length ERK3 (M1 to P413 residues) expressed in bacterial expression system at 1 uM by Kinomescan method relative to control.
Experiment [8] has as its target Ribosomal protein S6 kinase alpha-3 (Homo sapiens) (UniProt P51812). Kind of experiment: Inhibition of wild-type human partial length N-terminal RSK2 kinase domain 1 (M1 to D394 residues) expressed in mammalian expression system at 1 uM by Kinomescan method relative to control.
Experiment [9] deals with Serine/threonine-protein kinase Nek9 (Homo sapiens) (UniProt Q8TD19). The experiment in a line: Inhibition of wild-type human partial length NEK9 (P32 to R328 residues) expressed in bacterial expression system at 1 uM by Kinomescan method relative to control.
The target in experiment [10] is Ephrin type-A receptor 8 (Homo sapiens) (UniProt P29322). Kind of experiment: Inhibition of wild-type human partial length EPHA8 (Q608 to C920 residues) expressed in bacterial expression system at 1 uM by Kinomescan method relative to control.
Ephrin type-A receptor 8 (Homo sapiens), sequence (P29322 whole entry, the tested form may be a part): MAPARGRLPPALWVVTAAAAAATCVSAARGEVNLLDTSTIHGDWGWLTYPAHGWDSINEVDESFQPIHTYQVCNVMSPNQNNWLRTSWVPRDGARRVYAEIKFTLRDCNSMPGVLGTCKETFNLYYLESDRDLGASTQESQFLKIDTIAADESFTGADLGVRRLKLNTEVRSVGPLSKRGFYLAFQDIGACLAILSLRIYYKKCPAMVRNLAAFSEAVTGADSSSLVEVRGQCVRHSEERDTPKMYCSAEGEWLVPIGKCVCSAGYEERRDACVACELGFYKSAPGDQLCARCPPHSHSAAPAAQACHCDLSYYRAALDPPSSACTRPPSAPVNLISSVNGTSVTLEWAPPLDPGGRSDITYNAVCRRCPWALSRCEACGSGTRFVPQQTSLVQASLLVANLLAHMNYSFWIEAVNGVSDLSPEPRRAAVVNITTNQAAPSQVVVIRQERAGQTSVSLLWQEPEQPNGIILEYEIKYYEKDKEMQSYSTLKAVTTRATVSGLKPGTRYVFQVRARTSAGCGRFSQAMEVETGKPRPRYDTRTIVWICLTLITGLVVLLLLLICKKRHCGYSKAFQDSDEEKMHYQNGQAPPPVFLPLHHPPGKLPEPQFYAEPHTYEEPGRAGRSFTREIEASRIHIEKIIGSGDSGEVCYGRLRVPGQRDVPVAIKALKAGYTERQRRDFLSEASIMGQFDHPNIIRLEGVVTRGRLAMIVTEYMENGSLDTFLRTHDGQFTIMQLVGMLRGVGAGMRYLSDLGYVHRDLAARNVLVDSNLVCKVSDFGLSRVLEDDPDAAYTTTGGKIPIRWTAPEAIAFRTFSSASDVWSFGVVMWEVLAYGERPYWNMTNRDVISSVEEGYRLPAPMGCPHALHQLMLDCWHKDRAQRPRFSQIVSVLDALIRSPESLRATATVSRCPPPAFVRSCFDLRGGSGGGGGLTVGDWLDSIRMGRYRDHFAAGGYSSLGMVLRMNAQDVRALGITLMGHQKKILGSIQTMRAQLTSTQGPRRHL
Experiment [11] addresses TGF-beta receptor type-2 (Homo sapiens) (UniProt P37173). The experiment in a line: Inhibition of wild-type human partial length TGFBR2 (I218 to K567 residues) expressed in bacterial expression system at 1 uM by Kinomescan method relative to control.
Experiment [12] addresses Aurora kinase A (Homo sapiens) (UniProt O14965). Kind of experiment: Inhibition of wild-type human partial length AURKA (E122 to K401 residues) expressed in mammalian expression system at 1 uM by Kinomescan method relative to control.
Experiment [13] has as its target Tyrosine-protein kinase SYK (Homo sapiens) (UniProt P43405). Kind of experiment: Inhibition of wild-type human partial length SYK (D354 to N635 residues) expressed in bacterial expression system at 1 uM by Kinomescan method relative to control.
The target of experiment [14] is Mitogen-activated protein kinase kinase kinase kinase 1 (Homo sapiens) (UniProt Q92918). The experiment in a line: Inhibition of wild-type human full length HPK1 (M1 to R799 residues) expressed in bacterial expression system at 1 uM by Kinomescan method relative to control.
Experiment [15] addresses Rhodopsin kinase GRK7 (Homo sapiens) (UniProt Q8WTQ7). Kind of experiment: Inhibition of wild-type human full length GRK7 (M1 to L553 residues) expressed in mammalian expression system at 1 uM by Kinomescan method relative to control.
Experiment [16] deals with Misshapen-like kinase 1 (Homo sapiens) (UniProt Q8N4C8). Kind of experiment: Inhibition of wild-type human partial length MINK (M1 to K312 residues) expressed in mammalian expression system at 1 uM by Kinomescan method relative to control.
Experiment [17] concerns the target Mitogen-activated protein kinase kinase kinase kinase 4 (Homo sapiens) (UniProt O95819). The experiment in a line: Inhibition of wild-type human partial length MAP4K4 (M1 to R310 residues) expressed in bacterial expression system at 10 uM by Kinomescan method relative to control.
The target in experiment [18] is Serine/threonine-protein kinase 32C (Homo sapiens) (UniProt Q86UX6). The experiment in a line: Inhibition of wild-type human partial length YANK3 (M68 to G486 residues) expressed in bacterial expression system at 10 uM by Kinomescan method relative to control.
The target in experiment [19] is Serine/threonine-protein kinase TAO3 (Homo sapiens) (UniProt Q9H2K8). Kind of experiment: Inhibition of wild-type human partial length TAOK3 (M1 to T316 residues) expressed in mammalian expression system at 10 uM by Kinomescan method relative to control.
Serine/threonine-protein kinase TAO3 (Homo sapiens), sequence (Q9H2K8 whole entry, the tested form may be a part): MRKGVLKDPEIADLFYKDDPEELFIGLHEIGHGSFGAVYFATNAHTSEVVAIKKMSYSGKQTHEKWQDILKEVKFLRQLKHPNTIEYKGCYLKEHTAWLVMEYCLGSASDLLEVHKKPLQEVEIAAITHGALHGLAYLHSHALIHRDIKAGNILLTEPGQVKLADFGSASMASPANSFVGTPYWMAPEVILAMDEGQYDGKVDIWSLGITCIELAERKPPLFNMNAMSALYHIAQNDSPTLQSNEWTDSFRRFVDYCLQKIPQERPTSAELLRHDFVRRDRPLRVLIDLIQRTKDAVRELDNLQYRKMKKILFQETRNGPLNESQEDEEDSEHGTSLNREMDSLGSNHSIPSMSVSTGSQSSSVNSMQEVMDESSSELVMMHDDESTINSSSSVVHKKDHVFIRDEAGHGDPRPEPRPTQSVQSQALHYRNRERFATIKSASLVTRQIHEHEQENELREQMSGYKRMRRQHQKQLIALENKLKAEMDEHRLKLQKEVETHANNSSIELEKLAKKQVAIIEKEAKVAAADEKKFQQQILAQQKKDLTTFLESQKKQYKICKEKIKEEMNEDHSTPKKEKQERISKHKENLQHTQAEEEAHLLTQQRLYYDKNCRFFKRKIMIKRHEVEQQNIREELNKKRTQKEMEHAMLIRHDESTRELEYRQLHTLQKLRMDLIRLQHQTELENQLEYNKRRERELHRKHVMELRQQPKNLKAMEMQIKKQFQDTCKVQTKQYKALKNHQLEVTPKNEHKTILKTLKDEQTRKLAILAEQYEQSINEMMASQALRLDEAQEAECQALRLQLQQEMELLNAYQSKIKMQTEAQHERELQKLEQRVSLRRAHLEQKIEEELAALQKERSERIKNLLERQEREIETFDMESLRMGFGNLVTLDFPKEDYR
In experiment [20] the target is TGF-beta receptor type-1 (Homo sapiens) (UniProt P36897). The experiment in a line: Inhibition of wild-type human partial length TGFBR1 (D179 to M503 residues) expressed in bacterial expression system at 10 uM by Kinomescan method relative to control.
TGF-beta receptor type-1 (Homo sapiens), sequence (P36897 whole entry, the tested form may be a part): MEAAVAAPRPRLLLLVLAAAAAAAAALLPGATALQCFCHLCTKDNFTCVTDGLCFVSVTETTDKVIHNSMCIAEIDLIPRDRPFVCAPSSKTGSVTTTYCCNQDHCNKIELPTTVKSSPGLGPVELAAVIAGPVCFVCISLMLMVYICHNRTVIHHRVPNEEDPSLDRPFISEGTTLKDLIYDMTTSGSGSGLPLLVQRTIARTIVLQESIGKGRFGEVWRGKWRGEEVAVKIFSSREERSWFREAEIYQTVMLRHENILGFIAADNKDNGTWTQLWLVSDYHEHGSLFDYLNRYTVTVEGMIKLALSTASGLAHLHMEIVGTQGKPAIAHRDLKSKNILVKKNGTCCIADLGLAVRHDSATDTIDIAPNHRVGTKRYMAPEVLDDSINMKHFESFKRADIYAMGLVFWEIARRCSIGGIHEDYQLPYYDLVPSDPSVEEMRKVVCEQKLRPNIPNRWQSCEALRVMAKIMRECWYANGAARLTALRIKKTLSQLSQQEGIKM
Experiment [21] deals with 5'-AMP-activated protein kinase catalytic subunit alpha-1 (Homo sapiens) (UniProt Q13131). The experiment in a line: Inhibition of wild-type human partial length AMPK alpha1 (M1 to E306 residues) expressed in bacterial expression system at 10 uM by Kinomescan method relative to control.
The target in experiment [22] is Serine/threonine-protein kinase SBK1 (Homo sapiens) (UniProt Q52WX2). Kind of experiment: Inhibition of wild-type human partial length SBK1 (P23 to P348 residues) expressed in mammalian expression system at 10 uM by Kinomescan method relative to control.
Serine/threonine-protein kinase SBK1 (Homo sapiens), sequence (Q52WX2 whole entry, the tested form may be a part): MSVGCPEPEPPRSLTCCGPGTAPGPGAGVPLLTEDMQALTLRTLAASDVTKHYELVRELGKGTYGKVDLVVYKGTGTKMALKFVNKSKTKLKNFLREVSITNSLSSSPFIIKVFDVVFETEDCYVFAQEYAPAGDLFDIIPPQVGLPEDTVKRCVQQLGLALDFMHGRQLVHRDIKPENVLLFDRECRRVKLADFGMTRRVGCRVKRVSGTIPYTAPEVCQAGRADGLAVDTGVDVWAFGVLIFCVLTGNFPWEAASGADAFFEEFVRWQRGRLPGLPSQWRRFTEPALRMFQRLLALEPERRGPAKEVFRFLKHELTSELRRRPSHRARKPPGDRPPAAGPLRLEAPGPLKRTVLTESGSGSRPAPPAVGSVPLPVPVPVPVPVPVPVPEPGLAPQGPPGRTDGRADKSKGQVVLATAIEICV
Experiment [23] deals with Serine/threonine-protein kinase RIO3 (Homo sapiens) (UniProt O14730). Kind of experiment: Inhibition of wild-type human full length RIOK3 (M1 to E519 residues) expressed in bacterial expression system at 10 uM by Kinomescan method relative to control.
Serine/threonine-protein kinase RIO3 (Homo sapiens), sequence (O14730 whole entry, the tested form may be a part): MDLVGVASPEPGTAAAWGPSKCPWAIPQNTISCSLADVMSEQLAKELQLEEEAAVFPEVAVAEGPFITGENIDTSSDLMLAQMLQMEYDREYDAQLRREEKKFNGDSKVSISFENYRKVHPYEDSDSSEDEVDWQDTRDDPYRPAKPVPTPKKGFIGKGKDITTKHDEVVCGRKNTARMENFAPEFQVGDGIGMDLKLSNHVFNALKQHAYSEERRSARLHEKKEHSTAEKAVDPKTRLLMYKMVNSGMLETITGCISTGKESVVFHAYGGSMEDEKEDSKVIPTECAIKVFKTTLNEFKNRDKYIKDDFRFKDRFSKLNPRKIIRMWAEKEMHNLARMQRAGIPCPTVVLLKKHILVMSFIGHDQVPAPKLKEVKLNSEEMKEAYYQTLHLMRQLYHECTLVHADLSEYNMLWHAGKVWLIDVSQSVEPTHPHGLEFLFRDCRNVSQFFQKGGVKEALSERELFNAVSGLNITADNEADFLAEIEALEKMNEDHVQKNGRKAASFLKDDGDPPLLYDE
In experiment [24] the target is Testis-specific serine/threonine-protein kinase 3 (Homo sapiens) (UniProt Q96PN8). The experiment in a line: Inhibition of wild-type human full length TSSK3 (M1 to T268 residues) expressed in mammalian expression system at 10 uM by Kinomescan method relative to control.
The subject of experiment [25] is ALK tyrosine kinase receptor (Homo sapiens), Q9UM73 [C1156Y]. The experiment in a line: Inhibition of wild-type human partial length ALK C1156Y mutant (I1088 to E1409 residues) expressed in mammalian expression system at 10 uM by Kinomescan method relative to control.
Experiment [26] has as its target Phosphatidylinositol 3-kinase C2 domain-containing subunit gamma (Homo sapiens) (UniProt O75747). The experiment in a line: Inhibition of wild-type human partial length PIK3C2G (M1 to I1446 residues) expressed in mammalian expression system at 10 uM by Kinomescan method relative to control.
Experiment [27] concerns the target Receptor-type tyrosine-protein kinase FLT3 (Homo sapiens) (UniProt P36888). Kind of experiment: Inhibition of wild-type human partial length FLT3 (V592 to Y969 residues) expressed in bacterial expression system at 10 uM by Kinomescan method relative to control.

Aurora kinase A (Homo sapiens), sequence (O14965 whole entry, the tested form may be a part): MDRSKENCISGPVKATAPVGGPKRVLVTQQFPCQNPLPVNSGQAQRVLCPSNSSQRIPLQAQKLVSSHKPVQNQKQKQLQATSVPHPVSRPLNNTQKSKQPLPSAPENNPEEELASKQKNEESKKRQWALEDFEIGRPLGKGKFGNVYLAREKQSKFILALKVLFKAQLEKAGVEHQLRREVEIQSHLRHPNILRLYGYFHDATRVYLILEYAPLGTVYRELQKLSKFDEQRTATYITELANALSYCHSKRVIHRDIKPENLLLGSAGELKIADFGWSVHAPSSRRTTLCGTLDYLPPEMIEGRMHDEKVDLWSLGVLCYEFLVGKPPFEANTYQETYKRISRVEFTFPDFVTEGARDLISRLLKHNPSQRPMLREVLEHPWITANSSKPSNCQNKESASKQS
Serine/threonine-protein kinase PAK 1 (Homo sapiens), sequence (Q13153 whole entry, the tested form may be a part): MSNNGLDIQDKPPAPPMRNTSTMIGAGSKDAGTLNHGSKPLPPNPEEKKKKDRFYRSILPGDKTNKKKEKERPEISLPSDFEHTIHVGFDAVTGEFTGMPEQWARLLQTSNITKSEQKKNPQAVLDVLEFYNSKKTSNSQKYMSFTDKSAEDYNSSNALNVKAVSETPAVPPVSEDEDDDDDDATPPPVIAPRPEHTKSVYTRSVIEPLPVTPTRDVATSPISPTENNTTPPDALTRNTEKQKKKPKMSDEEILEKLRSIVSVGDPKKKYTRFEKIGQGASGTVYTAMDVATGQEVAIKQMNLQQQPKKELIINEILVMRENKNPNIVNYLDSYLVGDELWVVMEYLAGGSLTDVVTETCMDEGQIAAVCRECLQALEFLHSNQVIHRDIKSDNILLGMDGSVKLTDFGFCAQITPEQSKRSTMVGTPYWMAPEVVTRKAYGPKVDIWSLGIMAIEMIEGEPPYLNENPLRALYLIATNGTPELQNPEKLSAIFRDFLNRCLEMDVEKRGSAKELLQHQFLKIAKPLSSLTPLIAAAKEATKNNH
Rhodopsin kinase GRK7 (Homo sapiens), sequence (Q8WTQ7 whole entry, the tested form may be a part): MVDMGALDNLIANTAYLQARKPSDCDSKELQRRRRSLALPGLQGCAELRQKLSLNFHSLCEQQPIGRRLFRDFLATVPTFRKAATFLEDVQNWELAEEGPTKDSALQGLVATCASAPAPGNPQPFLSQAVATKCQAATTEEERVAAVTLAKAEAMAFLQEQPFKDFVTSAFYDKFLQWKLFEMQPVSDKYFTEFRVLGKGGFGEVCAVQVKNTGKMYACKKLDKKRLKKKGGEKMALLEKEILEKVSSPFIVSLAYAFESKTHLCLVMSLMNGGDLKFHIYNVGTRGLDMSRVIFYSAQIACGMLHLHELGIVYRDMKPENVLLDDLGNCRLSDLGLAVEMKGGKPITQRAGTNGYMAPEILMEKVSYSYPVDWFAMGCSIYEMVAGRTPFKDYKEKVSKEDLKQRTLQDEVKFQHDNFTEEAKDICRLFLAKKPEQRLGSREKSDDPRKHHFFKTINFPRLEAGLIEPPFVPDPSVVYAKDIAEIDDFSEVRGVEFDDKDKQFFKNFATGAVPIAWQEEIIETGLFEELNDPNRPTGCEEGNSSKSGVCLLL

In the case of `O=C(Nc1cccc([C@@H]2CN(c3ncnc4[nH]ccc34)CCN2CCO)c1)Nc1c(F)cccc1N1CCCC1`, the inhibition in experiment [1] was 90%; in [2], 81%; in [3], 75%; in experiment [4], 100%; in [5], 67%; in [6], 78%. The inhibition in [7] is 100%; in experiment [8] it was 94%; in [9], 95%; in experiment [10], 100%; in experiment [11], 100%; in experiment [12], 3.6%. The inhibition in experiment [13] was 97%; in experiment [14], 100%; in [15], 99%; in experiment [16], 69%.
As to `O=C(Nc1cccc([C@H]2CCCN(c3ncnc4[nH]ccc34)C2)c1)Nc1ccccc1N1CCCC1`, the inhibition in experiment [17] was 100%; in experiment [18], 100%; in experiment [19], 79%; in [20] it was 96%; in [21], 6.6%; in experiment [22], 42%. Further, the inhibition was 0.35% in experiment [23]; 85% in experiment [24]; 57% in experiment [25]; 89% in experiment [26]; 7.2% in [27].
